According to US9738634B2, “Heterocyclic amide compound and herbicide” (SYNGENTA PARTICIPATIONS AG, priority 2013, dated 2017):

How the values were obtained:
Format in all cases: in vivo
Settings in all cases: treatment dosage 320 g/ha
barnyard grass [1] = assay: Test Example 1: weedkilling efficacy, preemergent weed treatment in the submerged state; A: barnyard grass
In short: (§1)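 Alluvial soil in Wagner pots flooded to 4 cm; barnyard grass, bulrush and oval-leafed pondweed seeds sown, then 2.5-leaf rice seedlings transplanted. Same day, emulsified compound diluted in water to set g/ha dosages and applied to water surface; greenhouse 25–30 °C, effect scored by criteria after 3 weeks.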

bulrush [2] = assay: Test Example 1: weedkilling efficacy, preemergent weed treatment in the submerged state; B: bulrush
In short: as §1

oval-leafed pondweed [3] = assay: Test Example 1: weedkilling efficacy, preemergent weed treatment in the submerged state; C: oval-leafed pondweed
In short: as §1

transplanted rice = assay: Test Example 1: preemergent weed treatment in the submerged state, effect on crop; a: transplanted rice
In short: as §1

barnyard grass [4] = assay: Test Example 2: weedkilling efficacy, growth period weed treatment in the submerged state; A: barnyard grass
In short: (§2)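 First, alluvial soil in pots is flooded to 4 cm and mixed seed is sown. Next, plants grow in a greenhouse at 25 to 30° C until the 1-2 leaf stage. Then diluted emulsion is applied onto the water surface at the given g/ha rate, and injury is assessed after 3 weeks.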

bulrush [5] = assay: Test Example 2: weedkilling efficacy, growth period weed treatment in the submerged state; B: bulrush
In short: as §2

oval-leafed pondweed [6] = assay: Test Example 2: weedkilling efficacy, growth period weed treatment in the submerged state; C: oval-leafed pondweed
In short: as §2

crabgrass [7] = assay: Test Example 3: weedkilling efficacy through soil treatment; D: crabgrass
In short: (§3)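 Crop and weed responses were judged three weeks after a uniform surface spray of the water-diluted emulsion at the given g/ha rate. Seeds sat beneath about 1.5 cm of sterilized diluvial soil, and boxes stood in a greenhouse at 25 to 30° C.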

green foxtail [8] = assay: Test Example 3: weedkilling efficacy through soil treatment; E: green foxtail
In short: as §3

barnyard grass [9] = assay: Test Example 3: weedkilling efficacy through soil treatment; F: barnyard grass
In short: as §3

wild oat [10] = assay: Test Example 3: weedkilling efficacy through soil treatment; G: wild oat
In short: as §3

black-grass [11] = assay: Test Example 3: weedkilling efficacy through soil treatment; H: black-grass
In short: as §3

Italian ryegrass [12] = assay: Test Example 3: weedkilling efficacy through soil treatment; I: Italian ryegrass
In short: as §3

common wind-grass [13] = assay: Test Example 3: weedkilling efficacy through soil treatment; J: common wind-grass
In short: as §3

Indian mallow [14] = assay: Test Example 3: weedkilling efficacy through soil treatment; K: Indian mallow
In short: as §3

redroot pigweed [15] = assay: Test Example 3: weedkilling efficacy through soil treatment; L: redroot pigweed
In short: as §3

fig-leafed goosefoot [16] = assay: Test Example 3: weedkilling efficacy through soil treatment; M: fig-leafed goosefoot
In short: as §3

chickweed [17] = assay: Test Example 3: weedkilling efficacy through soil treatment; N: chickweed
In short: as §3

catchweed [18] = assay: Test Example 3: weedkilling efficacy through soil treatment; O: catchweed
In short: as §3

birds-eye speedwell = assay: Test Example 3: weedkilling efficacy through soil treatment; p: birds-eye speedwell
In short: as §3

directly sown rice [19] = assay: Test Example 3: soil treatment, effect on crop; b: directly sown rice
In short: as §3

corn [20] = assay: Test Example 3: soil treatment, effect on crop; c: corn
In short: as §3

soybean [21] = assay: Test Example 3: soil treatment, effect on crop; d: soybean
In short: as §3

wheat [22] = assay: Test Example 3: soil treatment, effect on crop; e: wheat
In short: as §3

beet [23] = assay: Test Example 3: soil treatment, effect on crop; f: beet
In short: as §3

rapeseed [24] = assay: Test Example 3: soil treatment, effect on crop; g: rapeseed
In short: as §3

crabgrass [25] = assay: Test Example 4: weedkilling efficacy by foliar treatment; D: crabgrass
In short: (§4)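 Seeds are spot-sown into sterilized diluvial soil and covered with about 1.5 cm of soil. After 14 days' greenhouse growth at 25 to 30° C, plants are sprayed on stems and leaves with diluted emulsion at the stated g/ha rate, then scored at 3 weeks.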

green foxtail [26] = assay: Test Example 4: weedkilling efficacy by foliar treatment; E: green foxtail
In short: as §4

barnyard grass [27] = assay: Test Example 4: weedkilling efficacy by foliar treatment; F: barnyard grass
In short: as §4

wild oat [28] = assay: Test Example 4: weedkilling efficacy by foliar treatment; G: wild oat
In short: as §4

black-grass [29] = assay: Test Example 4: weedkilling efficacy by foliar treatment; H: black-grass
In short: as §4

Italian ryegrass [30] = assay: Test Example 4: weedkilling efficacy by foliar treatment; I: Italian ryegrass
In short: as §4

common wind-grass [31] = assay: Test Example 4: weedkilling efficacy by foliar treatment; J: common wind-grass
In short: as §4

Indian mallow [32] = assay: Test Example 4: weedkilling efficacy by foliar treatment; K: Indian mallow
In short: as §4

redroot pigweed [33] = assay: Test Example 4: weedkilling efficacy by foliar treatment; L: redroot pigweed
In short: as §4

fig-leafed goosefoot [34] = assay: Test Example 4: weedkilling efficacy by foliar treatment; M: fig-leafed goosefoot
In short: as §4

chickweed [35] = assay: Test Example 4: weedkilling efficacy by foliar treatment; N: chickweed
In short: as §4

catchweed [36] = assay: Test Example 4: weedkilling efficacy by foliar treatment; O: catchweed
In short: as §4

directly sown rice [37] = assay: Test Example 4: foliar treatment, effect on crop; b: directly sown rice
In short: as §4

corn [38] = assay: Test Example 4: foliar treatment, effect on crop; c: corn
In short: as §4

soybean [39] = assay: Test Example 4: foliar treatment, effect on crop; d: soybean
In short: as §4

wheat [40] = assay: Test Example 4: foliar treatment, effect on crop; e: wheat
In short: as §4

beet [41] = assay: Test Example 4: foliar treatment, effect on crop; f: beet
In short: as §4

rapeseed [42] = assay: Test Example 4: foliar treatment, effect on crop; g: rapeseed
In short: as §4

CC1=C(c2cccnc2F)C(=O)N(C(C)(C)C(=O)Nc2cc(Cl)cc(Br)n2)CO1 [B-2-12]
A (barnyard grass) weedkilling efficacy grade (barnyard grass [1]): 5 (weed kill ratio 90% or more, (practically complete withering)) | B (bulrush) weedkilling efficacy grade (bulrush [2]): 5 (weed kill ratio 90% or more, (practically complete withering)) | C (oval-leafed pondweed) weedkilling efficacy grade (oval-leafed pondweed [3]): 5 (weed kill ratio 90% or more, (practically complete withering)) | a (transplanted rice) effect on crop grade (transplanted rice): 5 (weed kill ratio 90% or more, (practically complete withering)) | A (barnyard grass) weedkilling efficacy grade (barnyard grass [4]): 5 (weed kill ratio 90% or more, (practically complete withering)) | B (bulrush) weedkilling efficacy grade (bulrush [5]): 5 (weed kill ratio 90% or more, (practically complete withering)) | C (oval-leafed pondweed) weedkilling efficacy grade (oval-leafed pondweed [6]): 5 (weed kill ratio 90% or more, (practically complete withering)) | D (crabgrass) weedkilling efficacy grade (crabgrass [7]): 5 (weed kill ratio 90% or more, (practically complete withering)) | E (green foxtail) weedkilling efficacy grade (green foxtail [8]): 5 (weed kill ratio 90% or more, (practically complete withering)) | F (barnyard grass) weedkilling efficacy grade (barnyard grass [9]): 5 (weed kill ratio 90% or more, (practically complete withering)) | G (wild oat) weedkilling efficacy grade (wild oat [10]): 1 (weed kill ratio 5% or more, less than 20%) | H (black-grass) weedkilling efficacy grade (black-grass [11]): 5 (weed kill ratio 90% or more, (practically complete withering)) | I (Italian ryegrass) weedkilling efficacy grade (Italian ryegrass [12]): 5 (weed kill ratio 90% or more, (practically complete withering)) | J (common wind-grass) weedkilling efficacy grade (common wind-grass [13]): 5 (weed kill ratio 90% or more, (practically complete withering)) | K (Indian mallow) weedkilling efficacy grade (Indian mallow [14]): 0 (weed kill ratio 5% or less (practically no effect)) | L (redroot pigweed) weedkilling efficacy grade (redroot pigweed [15]): 0 (weed kill ratio 5% or less (practically no effect)) | M (fig-leafed goosefoot) weedkilling efficacy grade (fig-leafed goosefoot [16]): 3 (weed kill ratio 40% or more, less than 70%) | N (chickweed) weedkilling efficacy grade (chickweed [17]): 4 (weed kill ratio 70% or more, less than 90%) | O (catchweed) weedkilling efficacy grade (catchweed [18]): 2 (weed kill ratio 20% or more, less than 40%) | P (birds-eye speedwell) weedkilling efficacy grade (birds-eye speedwell): 4 (weed kill ratio 70% or more, less than 90%) | b (directly sown rice) effect on crop grade (directly sown rice [19]): 3 (weed kill ratio 40% or more, less than 70%) | c (corn) effect on crop grade (corn [20]): 0 (weed kill ratio 5% or less (practically no effect)) | d (soybean) effect on crop grade (soybean [21]): 0 (weed kill ratio 5% or less (practically no effect)) | e (wheat) effect on crop grade (wheat [22]): 0 (weed kill ratio 5% or less (practically no effect)) | f (beet) effect on crop grade (beet [23]): 0 (weed kill ratio 5% or less (practically no effect)) | g (rapeseed) effect on crop grade (rapeseed [24]): 0 (weed kill ratio 5% or less (practically no effect)) | D (crabgrass) weedkilling efficacy grade (crabgrass [25]): 5 (weed kill ratio 90% or more, (practically complete withering)) | E (green foxtail) weedkilling efficacy grade (green foxtail [26]): 5 (weed kill ratio 90% or more, (practically complete withering)) | F (barnyard grass) weedkilling efficacy grade (barnyard grass [27]): 5 (weed kill ratio 90% or more, (practically complete withering)) | G (wild oat) weedkilling efficacy grade (wild oat [28]): 4 (weed kill ratio 70% or more, less than 90%) | H (black-grass) weedkilling efficacy grade (black-grass [29]): 5 (weed kill ratio 90% or more, (practically complete withering)) | I (Italian ryegrass) weedkilling efficacy grade (Italian ryegrass [30]): 5 (weed kill ratio 90% or more, (practically complete withering)) | J (common wind-grass) weedkilling efficacy grade (common wind-grass [31]): 5 (weed kill ratio 90% or more, (practically complete withering)) | K (Indian mallow) weedkilling efficacy grade (Indian mallow [32]): 5 (weed kill ratio 90% or more, (practically complete withering)) | L (redroot pigweed) weedkilling efficacy grade (redroot pigweed [33]): 4 (weed kill ratio 70% or more, less than 90%) | M (fig-leafed goosefoot) weedkilling efficacy grade (fig-leafed goosefoot [34]): 4 (weed kill ratio 70% or more, less than 90%) | N (chickweed) weedkilling efficacy grade (chickweed [35]): 4 (weed kill ratio 70% or more, less than 90%) | O (catchweed) weedkilling efficacy grade (catchweed [36]): 4 (weed kill ratio 70% or more, less than 90%) | b (directly sown rice) effect on crop grade (directly sown rice [37]): 5 (weed kill ratio 90% or more, (practically complete withering)) | c (corn) effect on crop grade (corn [38]): 4 (weed kill ratio 70% or more, less than 90%) | d (soybean) effect on crop grade (soybean [39]): 4 (weed kill ratio 70% or more, less than 90%) | e (wheat) effect on crop grade (wheat [40]): 0 (weed kill ratio 5% or less (practically no effect)) | f (beet) effect on crop grade (beet [41]): 4 (weed kill ratio 70% or more, less than 90%) | g (rapeseed) effect on crop grade (rapeseed [42]): 4 (weed kill ratio 70% or more, less than 90%)

CC1=C(c2cccnc2F)C(=O)N(C(C)(C)C(=O)Nc2cc(Cl)cc(Cl)n2)CO1 [B-2-11]
D (crabgrass) weedkilling efficacy grade (crabgrass [7]): 5 (weed kill ratio 90% or more, (practically complete withering)) | E (green foxtail) weedkilling efficacy grade (green foxtail [8]): 5 (weed kill ratio 90% or more, (practically complete withering)) | F (barnyard grass) weedkilling efficacy grade (barnyard grass [9]): 5 (weed kill ratio 90% or more, (practically complete withering)) | G (wild oat) weedkilling efficacy grade (wild oat [10]): 3 (weed kill ratio 40% or more, less than 70%) | H (black-grass) weedkilling efficacy grade (black-grass [11]): 5 (weed kill ratio 90% or more, (practically complete withering)) | I (Italian ryegrass) weedkilling efficacy grade (Italian ryegrass [12]): 5 (weed kill ratio 90% or more, (practically complete withering)) | J (common wind-grass) weedkilling efficacy grade (common wind-grass [13]): 5 (weed kill ratio 90% or more, (practically complete withering)) | K (Indian mallow) weedkilling efficacy grade (Indian mallow [14]): 0 (weed kill ratio 5% or less (practically no effect)) | L (redroot pigweed) weedkilling efficacy grade (redroot pigweed [15]): 0 (weed kill ratio 5% or less (practically no effect)) | M (fig-leafed goosefoot) weedkilling efficacy grade (fig-leafed goosefoot [16]): 4 (weed kill ratio 70% or more, less than 90%) | N (chickweed) weedkilling efficacy grade (chickweed [17]): 4 (weed kill ratio 70% or more, less than 90%) | O (catchweed) weedkilling efficacy grade (catchweed [18]): 3 (weed kill ratio 40% or more, less than 70%) | P (birds-eye speedwell) weedkilling efficacy grade (birds-eye speedwell): 5 (weed kill ratio 90% or more, (practically complete withering)) | b (directly sown rice) effect on crop grade (directly sown rice [19]): 3 (weed kill ratio 40% or more, less than 70%) | c (corn) effect on crop grade (corn [20]): 1 (weed kill ratio 5% or more, less than 20%) | d (soybean) effect on crop grade (soybean [21]): 0 (weed kill ratio 5% or less (practically no effect)) | e (wheat) effect on crop grade (wheat [22]): 0 (weed kill ratio 5% or less (practically no effect)) | g (rapeseed) effect on crop grade (rapeseed [24]): 1 (weed kill ratio 5% or more, less than 20%) | D (crabgrass) weedkilling efficacy grade (crabgrass [25]): 5 (weed kill ratio 90% or more, (practically complete withering)) | E (green foxtail) weedkilling efficacy grade (green foxtail [26]): 5 (weed kill ratio 90% or more, (practically complete withering)) | F (barnyard grass) weedkilling efficacy grade (barnyard grass [27]): 5 (weed kill ratio 90% or more, (practically complete withering)) | G (wild oat) weedkilling efficacy grade (wild oat [28]): 4 (weed kill ratio 70% or more, less than 90%) | H (black-grass) weedkilling efficacy grade (black-grass [29]): 5 (weed kill ratio 90% or more, (practically complete withering)) | I (Italian ryegrass) weedkilling efficacy grade (Italian ryegrass [30]): 5 (weed kill ratio 90% or more, (practically complete withering)) | J (common wind-grass) weedkilling efficacy grade (common wind-grass [31]): 5 (weed kill ratio 90% or more, (practically complete withering)) | K (Indian mallow) weedkilling efficacy grade (Indian mallow [32]): 5 (weed kill ratio 90% or more, (practically complete withering)) | L (redroot pigweed) weedkilling efficacy grade (redroot pigweed [33]): 4 (weed kill ratio 70% or more, less than 90%) | M (fig-leafed goosefoot) weedkilling efficacy grade (fig-leafed goosefoot [34]): 5 (weed kill ratio 90% or more, (practically complete withering)) | N (chickweed) weedkilling efficacy grade (chickweed [35]): 4 (weed kill ratio 70% or more, less than 90%) | O (catchweed) weedkilling efficacy grade (catchweed [36]): 4 (weed kill ratio 70% or more, less than 90%) | b (directly sown rice) effect on crop grade (directly sown rice [37]): 3 (weed kill ratio 40% or more, less than 70%) | c (corn) effect on crop grade (corn [38]): 5 (weed kill ratio 90% or more, (practically complete withering)) | d (soybean) effect on crop grade (soybean [39]): 4 (weed kill ratio 70% or more, less than 90%) | e (wheat) effect on crop grade (wheat [40]): 0 (weed kill ratio 5% or less (practically no effect)) | f (beet) effect on crop grade (beet [41]): 4 (weed kill ratio 70% or more, less than 90%) | g (rapeseed) effect on crop grade (rapeseed [42]): 4 (weed kill ratio 70% or more, less than 90%)
